# Source: the NIST ThermoML archive (doi:10.1016/j.jct.2018.12.042)
# Numbers after ± are expanded uncertainties.
# Conditions: for surface tension liquid-gas: Pendant drop shape; for mass density: 101.33 kPa, Liquid, Vibrating tube method
SMILES,surface tension liquid-gas (293.15 K),surface tension liquid-gas (298.15 K),surface tension liquid-gas (303.15 K),surface tension liquid-gas (308.15 K),surface tension liquid-gas (313.15 K),mass density (288.15 K),mass density (293.15 K),mass density (298.15 K),mass density (303.15 K),mass density (308.15 K),mass density (313.15 K),mass density (318.15 K),mass density (328.15 K),surface tension liquid-gas (288.15 K),surface tension liquid-gas (318.15 K)
"BrCCBr [1,2-dibromoethane]",38.81 ± 0.7 mN/m,38.07 ± 0.69 mN/m,37.48 ± 0.68 mN/m,36.75 ± 0.67 mN/m,36.1 ± 0.66 mN/m,,,,,,,,,,
"ClCCCl [1,2-dichloroethane]",28 ± 0.52 mN/m,27.57 ± 0.51 mN/m,27.06 ± 0.5 mN/m,26.54 ± 0.49 mN/m,26.02 ± 0.48 mN/m,,,,,,,,,,
"BrCCCBr [1,3-dibromopropane]",39.66 ± 0.72 mN/m,38.95 ± 0.71 mN/m,38.33 ± 0.7 mN/m,37.6 ± 0.68 mN/m,37.12 ± 0.68 mN/m,,,,,,,,,,
"ClCCCCl [1,3-dichloropropane]",31.22 ± 0.57 mN/m,30.77 ± 0.57 mN/m,30.2 ± 0.56 mN/m,29.36 ± 0.54 mN/m,28.7 ± 0.53 mN/m,1189.09 ± 1.1 kg/m3,1184.88 ± 1.1 kg/m3,1178.97 ± 1.1 kg/m3,1173.1 ± 1.1 kg/m3,1167.26 ± 1.1 kg/m3,1161.46 ± 1.1 kg/m3,1154.88 ± 1.1 kg/m3,1142.62 ± 1.1 kg/m3,,
"BrCCCCBr [1,4-dibromobutane]",39.91 ± 0.72 mN/m,39.46 ± 0.72 mN/m,38.92 ± 0.71 mN/m,38.29 ± 0.7 mN/m,37.67 ± 0.68 mN/m,,,,,,,,,,
"ClCCCCCl [1,4-dichlorobutane]",33.73 ± 0.62 mN/m,33.15 ± 0.61 mN/m,32.55 ± 0.6 mN/m,32.1 ± 0.59 mN/m,31.59 ± 0.58 mN/m,,,,,,,,,,
"BrCCCCCBr [1,5-dibromopentane]",39.37 ± 0.71 mN/m,38.65 ± 0.7 mN/m,38.16 ± 0.69 mN/m,37.6 ± 0.68 mN/m,37.23 ± 0.68 mN/m,,,,,,,,,,
"ClCCCCCCl [1,5-dichloropentane]",35.02 ± 0.64 mN/m,34.43 ± 0.63 mN/m,33.85 ± 0.62 mN/m,33.22 ± 0.61 mN/m,32.78 ± 0.6 mN/m,1103.31 ± 1 kg/m3,1100.06 ± 1 kg/m3,1095.01 ± 1 kg/m3,1089.95 ± 1 kg/m3,1084.89 ± 1 kg/m3,1079.84 ± 1 kg/m3,1074.67 ± 1 kg/m3,1064.63 ± 1 kg/m3,,
"BrCCCCCCBr [1,6-dibromohexane]",38.92 ± 0.71 mN/m,38.36 ± 0.7 mN/m,37.78 ± 0.69 mN/m,37.21 ± 0.68 mN/m,36.63 ± 0.67 mN/m,,,,,,,,,,
"ClCCCCCCCl [1,6-dichlorohexane]",35 ± 0.71 mN/m,34.31 ± 0.69 mN/m,33.73 ± 0.68 mN/m,33.09 ± 0.67 mN/m,32.7 ± 0.66 mN/m,,,,,,,,,,
BrCBr [dibromomethane],38.5 ± 0.7 mN/m,37.76 ± 0.69 mN/m,37.09 ± 0.68 mN/m,36.32 ± 0.66 mN/m,35.55 ± 0.65 mN/m,,,,,,,,,,
CCCCCCO [hexan-1-ol],26.06 ± 0.48 mN/m,25.71 ± 0.48 mN/m,25.34 ± 0.47 mN/m,24.9 ± 0.5 mN/m,24.52 ± 0.46 mN/m,,,815.18 ± 1 kg/m3,,,,,,26.34 ± 0.49 mN/m,24.12 ± 0.45 mN/m
CCCCCO [pentan-1-ol],25.17 ± 0.47 mN/m,24.85 ± 0.46 mN/m,24.4 ± 0.5 mN/m,23.96 ± 0.45 mN/m,23.62 ± 0.44 mN/m,,,810.84 ± 1 kg/m3,,,,,,,23.28 ± 0.44 mN/m
O [water],72.84 ± 1.2 mN/m,72.14 ± 1.2 mN/m,,,,,,,,,,,,73.43 ± 1.2 mN/m,
